Source: patent publication US10758524B2, “Compositions and methods for selectively depleting senescent cells” (BioVentures, LLC, priority 2014, dated 2020)

Columns and labels:
Format in all cases: cell-based
[1] = system: Normal WI38 cells; assay: Cell viability of normal WI38 cells at 72 h (LD50); conditions: for CC50: Homo sapiens, WI-38, 72 h, read-out: LD50 non-senescent cells (NSC); for LD50 (normal): normal WI38 cells, Table 1
Method: (§1) Normal WI38 cells (FIG. 1A), IR-induced senescent cells (FIG. 1B) and replicative senescent cells (FIG. 1C) were incubated with increasing concentrations of PL. At 72 hours post-treatment cell viability was measured. […] IR-induced senescent WI38 cells were treated with 10 μM PL and viable cells were measured at 0, 1, 2, 3, 6, 12, 16, 24, 48 and 72 hours after treatment (FIG. 1D) or the cells were incubated with 10 μM PL for 1, 3, 6, 12, 24, 48 or 72 hours and cell viability was measured at 72 h (FIG. 1E).
(§2) At 72 hours post-treatment cell viability was measured.
(§3) Normal WI38 cells and IR-induced senescent cells were incubated with increasing concentrations of compounds of Formula I and Formula II. At 72 hours post-treatment cell viability was measured and LD50 was calculated.

[2] = system: IR-induced senescent WI38 cells; assay: Cell viability of IR-induced senescent WI38 cells at 72 h (LD50); conditions: for IC50: Homo sapiens, WI-38, 72 h, read-out: LD50 IR-senescent cells (SC); for Ratio (NSC/SC) / Ratio (normal/senescent): ratio of LD50 values; for Ratio (NSC/SC): Table 2; for LD50 (IR-senescent): IR-induced senescent WI38 cells; for LD50 (IR-senescent) / Ratio (normal/senescent): Table 1
Method: as §1, §2, §3

[3] = system: IR-induced senescent WI38 cells; assay: Reactive oxygen species (ROS) measurement after PL treatment; conditions: 10 μM PL, at 24 hours
Method: PL selectively increases ROS in senescent WI38 in a time-dependent manner. Normal (FIG. 2A) and IR-induced senescent WI38 cells (FIG. 2B) were incubated with vehicle (Veh), […] H2O2 for 30 min as a positive control, or 10 μM PL. Reactive oxygen species (ROS) was measured at various times (1, 3, 6, 12, 24 hours) after PL treatment and expressed as percent of control. Data are presented as mean±SE of three independent assays.

[4] = system: replicative senescent WI38 cells; assay: Cell viability of replicative senescent WI38 cells at 72 h (LD50)
Method: as §1

Structure (SMILES) | CC50 [1] | IC50 [2] | Ratio (NSC/SC) [2] | further results
COc1cc(/C=C/C(=O)N2CCC=CC2=O)cc(OC)c1OCCN(C)CCOc1c(OC)cc(/C=C/C(=O)N2CCC=CC2=O)cc1OC [GZ-11719] | 1.62 µM | 0.9 µM | 1.80 | 
CCCOc1c(OC)cc(/C=C/C(=O)N2CCC=CC2=O)cc1OC [GZ-11719-by] | 84.7 µM | 47.1 µM | 1.80 | 
O=C(C#Cc1ccccc1)N1CCC=CC1=O [XZ 12040] | 5.78 µM | 2.4 µM | 2.41 | 
COc1cc(/C=C(\C#N)C(=O)N2CCC=CC2=O)cc(OC)c1OC [XZ-12052] | 80 µM | 41 µM | 1.95 | 
CCCCS(=N)(=O)CCC(N)C(=O)O (stereo not drawn) [Buthionine sulfoximine, reference compound] |  |  |  | LD50 (normal) [1]: 2340.19 µM; LD50 (IR-senescent) [2]: 2391.51 µM; Ratio (normal/senescent) [2]: 1.0
COc1cc(/C=C/C(=O)N2CCCCCC2=O)cc(OC)c1OC [XL-11178A] | > 40 µM | > 40 µM |  | 
C=C1CCCN(S(=O)(=O)/C=C/c2ccccc2)C1=O [XZ-12107] | 24 µM | 4.77 µM | 5.02 | 
CCCCCCCCCC[P+](c1ccccc1)(c1ccccc1)c1ccccc1 [Decyl-triphenylphosphonium, reference compound] |  |  |  | LD50 (normal) [1]: 1.41 µM; LD50 (IR-senescent) [2]: 0.98 µM; Ratio (normal/senescent) [2]: 1.4
CC(=O)N[C@@H](CS)C(=O)O [NAC, N-Acetyl-Cysteine, reference compound] |  |  |  | effect on PL induced cell death ([2]; pre-treatment 2 hours (NAC 1 mM; Q-VD-OPh 20 μM), then 10 μM PL 72 h): selectively inhibited PL induced cell death
CC(=O)OC[C@H]1O[C@@H]([S-])[C@H](OC(C)=O)[C@@H](OC(C)=O)[C@@H]1OC(C)=O.CCP(CC)CC.[Au+] [Auranofin, reference compound] |  |  |  | LD50 (normal) [1]: 5.13 µM; LD50 (IR-senescent) [2]: 5.34 µM; Ratio (normal/senescent) [2]: 1.0
COc1cc(/C=C/C(=O)N2CCC=CC2=O)cc(OC)c1OC [PL, 5,6-dihydro-1-[(2E)-1-oxo-3-(3,4,5-trimethoxyphenyl)-2-propenyl]-2(1H)-pyridinone, reference compound] |  |  |  | effect on cell viability ([1]; PL up to 10 μM, 72 hours): no significant effect; LD50 (normal) [1]: 24.25 µM; viable cells over time ([2]; 10 μM PL, from 6 hours on, both treatment scenarios): significant reduction in viable cells; LD50 (IR-senescent) [2]: 7.05 µM; effect on number of viable cells ([2]; PL as low as 5 μM, 72 hours): significantly reduced the number of viable cells; Ratio (normal/senescent) [2]: 3.44-3.82; ROS production [3]: significantly increased ROS production; effect on number of viable cells ([4]; PL as low as 5 μM, 72 hours): significantly reduced the number of viable cells; LD50 (Replicative) ([4]; replicative senescent WI38 cells, Table 1): 6.35 µM
O=C1C=CCCN1C(=O)/C=C/c1ccccc1C(F)(F)F [XZ-12047] | 21.9 µM | 10.8 µM | 2.03 | 
COc1cc(C#CC(=O)N2CCC=CC2=O)cc(OC)c1OC [XZ-12045] | 13.9 µM | 4.38 µM | 3.18 | 
COc1cc(/C=C/C(=O)N2CCC=CC2=O)cc(OC)c1OCCN(C)C [XL-11194] | 10.3 µM | 4.02 µM | 2.56 | 
COc1cc(/C=C(\Br)C(=O)N2CCC=CC2=O)c(Br)c(OC)c1OC [GZ-11734] | 7.16 µM | 1.39 µM | 5.14 | 
